# System: GP2D (KRAS G12D) cells
# Assay: 2D cell viability assay (CellTiter-Glo)
# Assay type: cell-based
# Details: 96 h; GP2D cells, 4 days, CellTiter-Glo luminescence; read-out: G12D 2D EC50
# Experimental: Example B. 2D Cell Viability Assay
# Compounds were tested in a 384-well format for their ability to inhibit the viability of GP2D (KRAS G12D) cells in 2D assays. Compounds were serially diluted (1:3) in DMSO. The LabCyte ECHO Acoustic dispenser system was used to pre-spot assay plates with 200 nL of test molecule per well. 1000 cells/well (40 μL volume per well) in RPMI medium with 10% FBS, and Penicillin-Streptomycin-Glutamine were plated in pre-spotted 384-well plates (Greiner, Catalog #781076) on the BioTEK EL406 liquid dispenser with a 5 μL dispensing cassette (BioTek 7170011). The plates were incubated at 37° C., 5% CO2 for 4 days before addition of CellTiter-Glo (CTG) reagent and measurement of luminescence signal. EC50 values were defined as the compound concentration that causes a 50% decrease in luminescence signal and were calculated using a sigmoidal dose-response model to generate curve fits.
row,Structure (SMILES),EC50
1,"CCc1c(F)ccc2cc(O)cc(-c3c(F)c4c5c(nc(OC[C@@]67CCCN6C[C@H](F)C7)nc5c3F)N3C[C@H]5CC[C@H](N5)[C@H]3CCC4)c12 (atropisomer, axis not shown; (aR)) [Example 77-P, 4-((1S,4R,11R,15aR)-10,12-difluoro-8-(((2R,7aS)-2-fluorotetrahydro-1H-pyrrolizin-7a(5H)-yl)methoxy)-2,3,4,5,13,14,15,15a-octahydro-1H-1,4-epiminoazepino[1′,2′:1,8]azocino[2,3,4-de]quinazolin-11-yl)-5-ethyl-6-fluoronaphthalen-2-ol]",290 pM
2,"C#Cc1c(F)ccc2cc(O)cc(-c3c(F)c4c5c(nc(OC[C@]6(C)CN(C)CC[C@@H]6C(F)F)nc5c3F)N3C[C@H]5CC[C@@H]([C@H]3CCC4)N5Cc3oc(=O)oc3C)c12 (atropisomer, axis not shown; (aR)) [Example 78, 4-(((1S,4R,15aR)-8-(((3S,4S)-4-(difluoromethyl)-1,3-dimethylpiperidin-3-yl)methoxy)-11-((R)-8-ethynyl-7-fluoro-3-hydroxynaphthalen-1-yl)-10,12-difluoro-2,3,4,5,13,14,15,15a-octahydro-1H-1,4-epiminoazepino[1′,2′:1,8]azocino[2,3,4-de]quinazolin-16-yl)methyl)-5-methyl-1,3-dioxol-2-one]",80 pM
3,"Cc1oc(=O)oc1CN1[C@@H]2CC[C@H]1[C@@H]1[C@@H](C)Cc3c(Cl)c(-c4ccc(F)c5sc(N)c(C#N)c45)c(F)c4nc(OC[C@@]56CCCN5C[C@H](F)C6)nc(c34)N1C2 (atropisomer, axis not shown; (aS)) [Example 71, 2-amino-4-((1S,4R,11R,14S,14aS)-12-chloro-10-fluoro-8-(((2R,7aS)-2-fluorotetrahydro-1H-pyrrolizin-7a(5H)-yl)methoxy)-14-methyl-15-((5-methyl-2-oxo-1,3-dioxol-4-yl)methyl)-1,2,3,4,5,13,14,14a-octahydro-1,4-epiminoazepino[1′,2′:1,7]azepino[2,3,4-de]quinazolin-11-yl)-7-fluorobenzo[b]thiophene-3-carbonitrile]",410 pM
4,"C[C@H]1Cc2c(Cl)c(-c3ccc(F)c4sc(N)c(C#N)c34)c(F)c3nc(OC[C@@]45CCCN4C[C@H](F)C5)nc(c23)N2C[C@H]3CC[C@H](N3)[C@H]12 (atropisomer, axis not shown; (aS)) [Example 71-P, 2-amino-4-((1S,4R,11R,14S,14aS)-12-chloro-10-fluoro-8-(((2R,7aS)-2-fluorotetrahydro-1H-pyrrolizin-7a(5H)-yl)methoxy)-14-methyl-1,2,3,4,5,13,14,14a-octahydro-1,4-epiminoazepino[1′,2′:1,7]azepino[2,3,4-de]quinazolin-11-yl)-7-fluorobenzo[b]thiophene-3-carbonitrile]",180 pM
5,"C#Cc1c(F)ccc2cccc(-c3nc4c5c(nc(OC[C@@]67CCCN6C[C@H](F)C7)nc5c3F)N3C[C@H]5CC[C@@H]([C@H]3CCC4)N5Cc3oc(=O)oc3CCCCC)c12 [Example 20, 4-(((6aR,7S,10R)-2-(8-ethynyl-7-fluoronaphthalen-1-yl)-1-fluoro-13-(((2R,7aS)-2-fluorotetrahydro-1H-pyrrolizin-7a(5H)-yl)methoxy)-5,6,6a,7,8,9,10,11-octahydro-4H-3,11a,12,14,15-pentaaza-7,10-methanocyclohepta[4,5]cycloocta[1,2,3-de]naphthalen-15-yl)methyl)-5-pentyl-1,3-dioxol-2-one]",5000 pM
6,"C#Cc1c(F)ccc2cccc(-c3nc4c5c(nc(OC[C@@]67CCCN6C[C@H](F)C7)nc5c3F)N3C[C@H]5CC[C@@H]([C@H]3CCC4)N5Cc3oc(=O)oc3CCCCCC)c12 [Example 21, 4-(((6aR,7S,10R)-2-(8-ethynyl-7-fluoronaphthalen-1-yl)-1-fluoro-13-(((2R,7aS)-2-fluorotetrahydro-1H-pyrrolizin-7a(5H)-yl)methoxy)-5,6,6a,7,8,9,10,11-octahydro-4H-3,11a,12,14,15-pentaaza-7,10-methanocyclohepta[4,5]cycloocta[1,2,3-de]naphthalen-15-yl)methyl)-5-hexyl-1,3-dioxol-2-one]",5200 pM
7,"CCCCc1oc(=O)oc1CN1[C@@H]2CC[C@H]1[C@H]1CCCc3nc(-c4cc(O)cc5ccc(F)c(OC(F)(F)F)c45)c(F)c4nc(OC[C@@]56CCCN5C[C@H](F)C6)nc(c34)N1C2 [Example 22, 4-butyl-5-(((6aR,7S,10R)-1-fluoro-2-(7-fluoro-3-hydroxy-8-(trifluoromethoxy)naphthalen-1-yl)-13-(((2R,7aS)-2-fluorotetrahydro-1H-pyrrolizin-7a(5H)-yl)methoxy)-5,6,6a,7,8,9,10,11-octahydro-4H-3,11a,12,14,15-pentaaza-7,10-methanocyclohepta[4,5]cycloocta[1,2,3-de]naphthalen-15-yl)methyl)-1,3-dioxol-2-one]",850 pM
8,"CCCCCc1oc(=O)oc1CN1[C@@H]2CC[C@H]1[C@H]1CCCc3nc(-c4cc(O)cc5ccc(F)c(OC(F)(F)F)c45)c(F)c4nc(OC[C@@]56CCCN5C[C@H](F)C6)nc(c34)N1C2 [Example 23, 4-(((6aR,7S,10R)-1-fluoro-2-(7-fluoro-3-hydroxy-8-(trifluoromethoxy)naphthalen-1-yl)-13-(((2R,7aS)-2-fluorotetrahydro-1H-pyrrolizin-7a(5H)-yl)methoxy)-5,6,6a,7,8,9,10,11-octahydro-4H-3,11a,12,14,15-pentaaza-7,10-methanocyclohepta[4,5]cycloocta[1,2,3-de]naphthalen-15-yl)methyl)-5-pentyl-1,3-dioxol-2-one]",920 pM
9,"CCCCCCc1oc(=O)oc1CN1[C@@H]2CC[C@H]1[C@H]1CCCc3nc(-c4cc(O)cc5ccc(F)c(OC(F)(F)F)c45)c(F)c4nc(OC[C@@]56CCCN5C[C@H](F)C6)nc(c34)N1C2 [Example 24, 4-(((6aR,7S,10R)-1-fluoro-2-(7-fluoro-3-hydroxy-8-(trifluoromethoxy)naphthalen-1-yl)-13-(((2R,7aS)-2-fluorotetrahydro-1H-pyrrolizin-7a(5H)-yl)methoxy)-5,6,6a,7,8,9,10,11-octahydro-4H-3,11a,12,14,15-pentaaza-7,10-methanocyclohepta[4,5]cycloocta[1,2,3-de]naphthalen-15-yl)methyl)-5-hexyl-1,3-dioxol-2-one]",1100 pM
10,"C#Cc1c(F)ccc2cc(OC(=O)O[C@@H](C)C(C)C)cc(-c3nc4c5c(nc(OC[C@@]67CCCN6C[C@H](F)C7)nc5c3F)N3C[C@H]5CC[C@@H]([C@H]3CCC4)N5Cc3oc(=O)oc3C)c12 [Example 39, 5-ethynyl-6-fluoro-4-((6aR,7S,10R)-1-fluoro-13-(((2R,7aS)-2-fluorotetrahydro-1H-pyrrolizin-7a(5H)-yl)methoxy)-15-((5-methyl-2-oxo-1,3-dioxol-4-yl)methyl)-5,6,6a,7,8,9,10,11-octahydro-4H-3,11a,12,14,15-pentaaza-7,10-methanocyclohepta[4,5]cycloocta[1,2,3-de]naphthalen-2-yl)naphthalen-2-yl ((S)-3-methylbutan-2-yl) carbonate]",260 pM

# — patent publication US12448400B2, “KRAS G12D modulating compounds” (priority 2023, dated 2025)
